Test systems include HCT-15; LOX IMVI; HT-29; SF-268; UACC-62; MDA-MB-231; CCRF-CEM; SN12C; HCC 2998; OVCAR-5; MOLT-4; 786-0; OVCAR-3; SK-MEL-28; TK-10; U-251; COLO 205; Hs-578T; HCT-116.
Common to all, as to assay: DTP human tumour cell line panel, 48 h

Each structure is given as a SMILES string.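 The compound was tested at five concentrations on cells cultured in 96-well plates, with a 48-hour exposure period. GI50 marks 50% less growth.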 Activity calls are given as the source filed them. Rule as the data show it: active = GI50 up to about 1.1 µM and inactive = higher.

`CC(=O)CCC(=O)C(=[N+]=[N-])S(=O)(=O)c1ccccc1`: the GI50 was > 100 µM with HCT-15; > 100 µM (inactive) in the experiment with LOX IMVI; > 100 µM (inactive) with HT-29; > 100 µM (inactive) in the experiment on SF-268; > 100 µM (inactive) in the experiment on UACC-62; > 100 µM (inactive) with MDA-MB-231. Also, the GI50 in the experiment with CCRF-CEM, in the experiment with SN12C, with HCC 2998, in the experiment on OVCAR-5, in the experiment on MOLT-4 and with 786-0 was > 100 µM (inactive) throughout. In addition, the GI50 in the experiment on OVCAR-3, in the experiment on SK-MEL-28, in the experiment with TK-10, in the experiment with U-251, with COLO 205 and with Hs-578T was > 100 µM (inactive) in each case. Further, the GI50 in the experiment on HCT-116 was > 100 µM (inactive).
Take `Clc1ccc(Nc2ncco2)cc1Cl`: the GI50 in the experiment on HCT-15 was > 10 µM; with LOX IMVI it was > 10 µM (inactive); in the experiment with HT-29 it was > 10 µM (inactive); with SF-268 it was > 10 µM (inactive); in the experiment on UACC-62, > 10 µM (inactive); with MDA-MB-231, > 10 µM (inactive). Besides, the GI50 in the experiment with CCRF-CEM, in the experiment with SN12C, in the experiment with HCC 2998, in the experiment with OVCAR-5, in the experiment on MOLT-4 and in the experiment on 786-0 was > 10 µM (inactive) in each case. The GI50 in the experiment on OVCAR-3, in the experiment on SK-MEL-28, with TK-10, in the experiment on U-251, in the experiment on COLO 205 and in the experiment on Hs-578T was > 10 µM (inactive) each time. For the same molecule, in the experiment on HCT-116, the GI50 was > 10 µM (inactive).
Turning to `Cn1c2ccccc2c2c(=O)[nH]c(=O)[nH]c21`, the concentration for 50% growth inhibition (GI50) with HCT-15 is > 100 µM; in the experiment with LOX IMVI, > 100 µM (inactive); with HT-29, > 100 µM (inactive); in the experiment with SF-268, > 100 µM (inactive); in the experiment on UACC-62 it was > 100 µM (inactive); in the experiment with MDA-MB-231 it was > 100 µM (inactive). Further, the GI50 with CCRF-CEM, in the experiment with SN12C, in the experiment with HCC 2998, in the experiment with OVCAR-5, in the experiment with MOLT-4 and with 786-0 was > 100 µM (inactive) each time. Besides, the GI50 with OVCAR-3, in the experiment on SK-MEL-28, in the experiment on TK-10, in the experiment with U-251, in the experiment on COLO 205 and in the experiment with Hs-578T was > 100 µM (inactive) throughout. For the same molecule, the GI50 in the experiment with HCT-116 is > 100 µM (inactive).
In the case of `NC(=O)C1CCCN1C(=O)N(CCCl)N=O` (stereo unspecified), the concentration for 50% growth inhibition (GI50) in the experiment on HCT-15 was > 100 µM; in the experiment on LOX IMVI, > 100 µM (inactive); with HT-29, > 100 µM (inactive); in the experiment on SF-268, 74.1 µM (inactive); in the experiment with UACC-62, > 100 µM (inactive); in the experiment with MDA-MB-231 it was > 100 µM (inactive). Moreover, the GI50 is > 100 µM (inactive) in the experiment with CCRF-CEM; > 100 µM (inactive) in the experiment with SN12C; > 100 µM (inactive) in the experiment with HCC 2998; 54.5 µM (inactive) in the experiment on OVCAR-5; > 100 µM (inactive) with MOLT-4; > 100 µM (inactive) with 786-0. The GI50 with OVCAR-3, with SK-MEL-28, with TK-10, with U-251, in the experiment with COLO 205 and in the experiment with Hs-578T was > 100 µM (inactive) each time. The GI50 with HCT-116 was > 100 µM (inactive).

For the origin of these results see ChEMBL document CHEMBL1201862, “PubChem BioAssay data set” (2004).
